Assay results as given in the supplement of paper PMC13380429.

Legend:
Settings in all cases: 72 h
Calu-3 [1] = assay: cell viability relative to DMSO; higher = less toxic
U2OS [2] = assay: as above
Caco-2 [3] = assay: as above
Vero E6 [4] = assay: as above
HepG2 [5] = assay: as above
Calu-3 [6] = assay: relative viability EC50 (midpoint between 100% and the lowest measured viability); higher = less toxic
U2OS [7] = assay: as above
Caco-2 [8] = assay: as above
Vero E6 [9] = assay: as above
Calu-3 [10] = assay: drug sensitivity score (DSS) for viability; higher = more toxic; extreme values may be limits of the assay
U2OS [11] = assay: as above
Caco-2 [12] = assay: as above
Vero E6 [13] = assay: as above
HepG2 [14] = assay: as above
HepG2 [15] = assay: relative viability EC50 (midpoint between 100% and the lowest measured viability); higher = less toxic

Row | SMILES | cell viability (Calu-3 [1]; 1 nM) | cell viability (Calu-3 [1]; 10 nM) | cell viability (Calu-3 [1]; 100 nM) | cell viability (Calu-3 [1]; 1000 nM) | cell viability (Calu-3 [1]; 10000 nM) | cell viability (U2OS [2]; 1 nM) | cell viability (U2OS [2]; 10 nM) | cell viability (U2OS [2]; 100 nM) | cell viability (U2OS [2]; 1000 nM) | cell viability (U2OS [2]; 10000 nM) | cell viability (Caco-2 [3]; 1 nM) | cell viability (Caco-2 [3]; 10 nM) | cell viability (Caco-2 [3]; 100 nM) | cell viability (Caco-2 [3]; 1000 nM) | cell viability (Caco-2 [3]; 10000 nM) | cell viability (Vero E6 [4]; 1 nM) | cell viability (Vero E6 [4]; 10 nM) | cell viability (Vero E6 [4]; 100 nM) | cell viability (Vero E6 [4]; 1000 nM) | cell viability (Vero E6 [4]; 10000 nM) | cell viability (HepG2 [5]; 1 nM) | cell viability (HepG2 [5]; 10 nM) | cell viability (HepG2 [5]; 100 nM) | cell viability (HepG2 [5]; 1000 nM) | cell viability (HepG2 [5]; 10000 nM) | relative viability EC50 (Calu-3 [6]) | relative viability EC50 (U2OS [7]) | relative viability EC50 (Caco-2 [8]) | relative viability EC50 (Vero E6 [9]) | drug sensitivity score (Calu-3 [10]) | drug sensitivity score (U2OS [11]) | drug sensitivity score (Caco-2 [12]) | drug sensitivity score (Vero E6 [13]) | drug sensitivity score (HepG2 [14]) | relative viability EC50 (HepG2 [15])
1 | CCCCCCCCCCCCCCC[C@@H](O)[C@@H](N)CO [safingol] | 85.3% | 96.8% | 95.2% | 108% | 96.4% | 94% | 97.9% | 102% | 97.9% | 103% | 94.1% | 85.3% | 91% | 96.1% | 1.7% | 106% | 106% | 96.1% | 104% | 106% | 106% | 103% | 80% | 95.5% | 73.7% | > 10 µM | > 10 µM | 2.87 µM | > 10 µM | 0 | 0 | 6 | 0 | 1.9 | –
2 | O=C(O)[C@H]1O[C@@H](Oc2cc3oc(-c4ccccc4)cc(=O)c3c(O)c2O)[C@H](O)[C@@H](O)[C@@H]1O [baicalin] | 103% | 98.5% | 90.4% | 104% | 109% | 105% | 93.2% | 104% | 101% | 91.8% | 109% | 99% | 95.7% | 93.3% | 97.5% | 99.7% | 103% | 102% | 103% | 102% | – | – | – | – | – | > 10 µM | > 10 µM | > 10 µM | > 10 µM | 0 | 0 | 0 | 0 | – | –
3 | O=c1n(CC2CO2)c(=O)n(CC2CO2)c(=O)n1CC1CO1 (stereo not drawn) [teroxirone] | 94.4% | 91.2% | 99.3% | 84.1% | 90.9% | 103% | 95.7% | 104% | 102% | 96.2% | 102% | 101% | 95.6% | 93.2% | 84.3% | 100% | 105% | 98.5% | 102% | 80.8% | 99.9% | 100% | 92.8% | 91.1% | 51.8% | > 10 µM | > 10 µM | > 10 µM | > 10 µM | 0 | 0 | 0.4 | 0.4 | 4 | –
4 | N=C(N)c1ccc(/N=N/Nc2ccc(C(=N)N)cc2)cc1 [diminazene-aceturate] | 93.7% | 101% | 99.9% | 99.2% | 94.8% | 99% | 98.3% | 103% | 98.2% | 107% | 104% | 102% | 112% | 91.1% | 76.6% | 99.7% | 109% | 107% | 102% | 91.3% | 112% | 113% | 90.2% | 86.5% | 50.5% | > 10 µM | > 10 µM | > 10 µM | > 10 µM | 0 | 0 | 1.9 | 0 | 4.2 | –
5 | O=C(O)[C@H](O)[C@@H](O)[C@H](O[C@@H]1O[C@H](CO)[C@H](O)[C@H](O)[C@H]1O)[C@H](O)CO [maltobionic-acid] | 103% | 106% | 101% | 100% | 99.7% | 93.6% | 103% | 97.8% | 102% | 101% | 89.3% | 101% | 85.6% | 97.9% | 115% | 94.3% | 89.8% | 94.4% | 88% | 101% | – | – | – | – | – | > 10 µM | > 10 µM | > 10 µM | > 10 µM | 0 | 0 | 0 | 0 | – | –
6 | COC(=O)Nc1nc2cc(C(=O)c3cccs3)ccc2[nH]1 [nocodazole] | 103% | 105% | 73.8% | 65.4% | 54.9% | 105% | 110% | 70.4% | 46% | 24.3% | 102% | 105% | 73.6% | 54.1% | 40.6% | 105% | 108% | 64.8% | 30.7% | 26.8% | 114% | 103% | 85.6% | 40% | 40.2% | – | 0.252 µM | 0.174 µM | 0.103 µM | 10.6 | 13.6 | 11.8 | 17.9 | 13.3 | 0.159 µM
7 | CC[C@H](NC(=O)c1c(O)c(-c2ccccc2)nc2ccccc12)c1ccccc1 [talnetant] | 104% | 97.3% | 104% | 96.5% | 106% | 100% | 92.7% | 104% | 95% | 101% | 97.9% | 98.9% | 101% | 98.1% | 90% | 109% | 102% | 98.4% | 102% | 102% | 102% | 99% | 94.6% | 100% | 74.2% | > 10 µM | > 10 µM | > 10 µM | > 10 µM | 0 | 0 | 0 | 0 | 1 | –
8 | O=C(O)c1ccc(S(=O)(=O)N(Cc2ccc(OC(F)(F)F)cc2)c2ncc(C(F)(F)F)cc2Cl)cc1 | – | – | – | – | – | 99.4% | 95.1% | 97.3% | 96.2% | 97.2% | 96.7% | 92.3% | 90.6% | 96.5% | 104% | 104% | 95.9% | 99.3% | 96.5% | 88.9% | 104% | 108% | 95.3% | 99.8% | 95.6% | – | > 10 µM | > 10 µM | > 10 µM | – | 0 | 0 | 0.1 | 0 | > 10 µM
9 | CCNC(=O)[C@H]1O[C@@H](n2cnc3c(N)nc(NCCc4ccc(CCC(=O)O)cc4)nc32)[C@H](O)[C@@H]1O | 95.7% | 99.2% | 99.5% | 113% | 98.9% | – | – | – | – | – | 99.1% | 101% | 92.1% | 96.4% | 97.3% | 104% | 109% | 98.8% | 97.9% | 95.8% | 96.2% | 102% | 116% | 97% | 96.7% | > 10 µM | – | > 10 µM | > 10 µM | 0 | – | 0 | 0 | 0 | > 10 µM
10 | C#C[C@]1(O)CC[C@H]2[C@@H]3CCc4cc(O)ccc4[C@H]3CC[C@@]21C [ETHINYL ESTRADIOL] | 100% | 100% | 88.4% | 94.3% | 96.4% | 97.7% | 105% | 98.8% | 102% | 92.9% | 97.2% | 102% | 99.5% | 99.4% | 85.7% | 97.7% | 98.1% | 94.2% | 92.9% | 102% | 97.3% | 98% | 99.8% | 90.8% | 65.7% | > 10 µM | > 10 µM | > 10 µM | > 10 µM | 0 | 0 | 0.2 | 0 | 3 | –
11 | CCOc1ccccc1N/N=C1/C(=O)N(c2nc(-c3ccccc3)cs2)N=C1C [BAM7] | 96.5% | 95.8% | 83.7% | 97.3% | 99.6% | – | – | – | – | – | 94.6% | 105% | 88.2% | 103% | 88.7% | 98.8% | 101% | 95.2% | 95.2% | 94.8% | 106% | 96.2% | 99.1% | 92.2% | 82.6% | > 10 µM | – | > 10 µM | > 10 µM | 0 | – | 0 | 0 | 0.9 | > 10 µM
12 | S=C(NC1CCCCC1)N1CCC(c2cnc[nH]2)CC1 [thioperamide] | – | – | – | – | – | 100% | 96.2% | 98.7% | 93.1% | 96.4% | 98.7% | 99.4% | 92.7% | 103% | 95.4% | 103% | 103% | 96.5% | 94.3% | 95.9% | 108% | 97.3% | 104% | 100% | 92.7% | – | > 10 µM | > 10 µM | > 10 µM | – | 0 | 0 | 0 | 0 | > 10 µM
13 | Cc1ncc(CO)c(/C=N/NC(=O)c2ccncc2)c1O [pyridoxal-isonicotinoyl-hydrazone] | 90.1% | 99.4% | 102% | 103% | 92% | 95.8% | 97.4% | 95.8% | 93% | 102% | 102% | 108% | 93.3% | 100% | 100% | 100% | 94.2% | 92.5% | 97.4% | 109% | – | – | – | – | – | > 10 µM | > 10 µM | > 10 µM | > 10 µM | 0 | 0 | 0 | 0 | – | –
14 | O=C(O)c1cc(O)c2c(c1)[C@H]([C@H]1c3cc(C(=O)O)cc(O)c3C(=O)c3c(O[C@@H]4O[C@H](CO)[C@@H](O)[C@H](O)[C@H]4O)cccc31)c1cccc(O[C@@H]3O[C@H](CO)[C@@H](O)[C@H](O)[C@H]3O)c1C2=O [sennoside-A] | 95.3% | 96.8% | 90.1% | 91% | 67.3% | 94% | 100% | 96.5% | 96.6% | 88.3% | 79.8% | 100% | 88% | 82.1% | 123% | 112% | 93.1% | 95.9% | 98.8% | 101% | 90.2% | 91.7% | 89.6% | 103% | 92.4% | – | > 10 µM | > 10 µM | > 10 µM | 2.3 | 0 | 0 | 0 | 0 | > 10 µM
15 | O=C(NC(NC(=S)Nc1ccc(F)c([N+](=O)[O-])c1)C(Cl)(Cl)Cl)C(c1ccccc1)c1ccccc1 (stereo not drawn) [CGK-733] | 97.8% | 103% | 96.6% | 104% | 52.8% | 94.4% | 103% | 96.4% | 95.9% | 27.4% | 99.2% | 106% | 93.9% | 90.3% | 10.7% | 98.8% | 100% | 101% | 97.8% | 20% | 95.8% | 94.2% | 104% | 96.7% | 7.9% | – | 2.72 µM | 2.26 µM | 2.96 µM | 2.2 | 4.6 | 6.6 | 4.7 | 5.6 | 2.91 µM
